Laboratory results taken from ChEMBL document CHEMBL4251606, “Design and characterization of α-lipoic acyl shikonin ester twin drugs as tubulin and PDK1 dual inhibitors” (Eur J Med Chem, 2018).
Activity calls are given as the source filed them. The calls are words filed in the database; no cut-off is given here.

Key:
[1] = tested on: L02; assay: Antiproliferative activity against human LO2 cells after 24 hrs by MTT assay; assay type: cell-based; details: L02, 24 h
[2] = tested on: MDA-MB-231; assay: Antiproliferative activity against human MDA231 cells after 24 hrs by MTT assay; assay type: functional, cell-based; details: MDA-MB-231, 24 h
[3] = tested on: HeLa; assay: Antiproliferative activity against human HeLa cells after 24 hrs by MTT assay; assay type: functional, cell-based
[4] = tested on: A549; assay: Antiproliferative activity against human A549 cells after 24 hrs by MTT assay; assay type: functional, cell-based; details: A549, 24 h
[5] = tested on: HEK-293T; assay: Antiproliferative activity against human 293T cells after 24 hrs by MTT assay; assay type: cell-based
[6] = tested on: HepG2; assay: Antiproliferative activity against human HepG2 cells after 24 hrs by MTT assay; assay type: functional, cell-based; details: HepG2, 24 h
[7] = biological target: [Pyruvate dehydrogenase (acetyl-transferring)] kinase isozyme 1, mitochondrial (Homo sapiens) (UniProt Q15118); details: HeLa, 10 mM
Description: Inhibition of PDK1 in human HeLa cells assessed as decrease in PDH-E1 alpha p-ser232 expression at 10 mM by Western blot analysis

[8] = biological target: [Pyruvate dehydrogenase (acetyl-transferring)] kinase isozyme 1, mitochondrial (Homo sapiens) (UniProt Q15118); details: HeLa, 10 mM; remark: listed apart in the source
Description: Inhibition of PDK1 in human HeLa cells assessed as decrease in PDH-E1 alpha p-ser300 expression at 10 mM by Western blot analysis

[9] = biological target: [Pyruvate dehydrogenase (acetyl-transferring)] kinase isozyme 1, mitochondrial (Homo sapiens) (UniProt Q15118); details: HeLa, 10 mM; remark: listed apart in the source
Description: Inhibition of PDK1 in human HeLa cells assessed as increase in PDH-E1 alpha expression at 10 mM by Western blot analysis

[10] = tested on: HeLa; assay: Inhibition of microtubule polymerization in human HeLa cells at 0.5 uM after 24 hrs by rhodamine/DAPI staining-based confocal microscopic analysis; assay type: cell-based
[11] = species: Homo sapiens; assay: Inhibition of microtubule polymerization (unknown origin) at 0.5 uM after 24 hrs by immunoblot
[12] = tested on: HeLa; assay: Induction of microtubule polymerization in human HeLa cells assessed as bundle like formation at 0.5 uM after 24 hrs by rhodamine/DAPI staining-based confocal microscopic analysis; assay type: cell-based
[13] = species: Homo sapiens; assay: Induction of microtubule polymerization (unknown origin) at 0.5 uM after 24 hrs by immunoblot
[14] = tested on: HeLa; assay: Cell cycle arrest in human HeLa cells assessed as accumulation of cells at G2/M phase at 4 uM after 24 hrs by propidium iodide staining-based FACScan flow cytometric analysis (reference value: 14.97%); assay type: functional
[15] = tested on: HeLa; assay: Cell cycle arrest in human HeLa cells assessed as accumulation of cells at G2/M phase at 2 uM after 24 hrs by propidium iodide staining-based FACScan flow cytometric analysis (reference value: 14.97%); assay type: functional
[16] = tested on: HeLa; assay: Inhibition of microtubule polymerization in human HeLa cells at 4 uM after 24 hrs by rhodamine/DAPI staining-based confocal microscopic analysis; assay type: cell-based
[17] = tested on: HeLa; assay: Cell cycle arrest in human HeLa cells assessed as accumulation of cells at S phase at 1 uM after 24 hrs by propidium iodide staining-based FACScan flow cytometric analysis (reference value: 20.45%); assay type: functional
[18] = tested on: HeLa; assay: Antitumor activity against human HeLa cells xenografted in nude mouse assessed as reduction in tumor size at 1 mg/kg, ip administered once in every 2 days for 15 days relative to control; assay type: functional, organism-based
[19] = tested on: HeLa; assay: Cell cycle arrest in human HeLa cells assessed as accumulation of cells at G1 phase at 2 uM after 24 hrs by propidium iodide staining-based FACScan flow cytometric analysis (reference value: 64.58%); assay type: functional
[20] = tested on: HeLa; assay: Cell cycle arrest in human HeLa cells assessed as accumulation of cells at S phase at 2 uM after 24 hrs by propidium iodide staining-based FACScan flow cytometric analysis (reference value: 20.45%); assay type: functional
[21] = tested on: HeLa; assay: Cell cycle arrest in human HeLa cells assessed as accumulation of cells at G1 phase at 1 uM after 24 hrs by propidium iodide staining-based FACScan flow cytometric analysis (reference value: 64.58%); assay type: functional
[22] = tested on: HeLa; assay: Cell cycle arrest in human HeLa cells assessed as accumulation of cells at S phase at 4 uM after 24 hrs by propidium iodide staining-based FACScan flow cytometric analysis (reference value: 20.45%); assay type: functional
[23] = tested on: Mus musculus; assay: Toxicity in nude mouse xenografted with human HeLa cells assessed as loss in body weight at 1 mg/kg, ip administered once in every 2 days for 15 days; assay type: organism-based; details: in vivo
[24] = tested on: HeLa; assay: Cell cycle arrest in human HeLa cells assessed as accumulation of cells at G1 phase at 4 uM after 24 hrs by propidium iodide staining-based FACScan flow cytometric analysis (reference value: 64.58%); assay type: functional
[25] = tested on: HeLa; assay: Cell cycle arrest in human HeLa cells assessed as accumulation of cells at G2/M phase at 1 uM after 24 hrs by propidium iodide staining-based FACScan flow cytometric analysis (reference value: 14.97%); assay type: functional

| Structure (SMILES) | IC50 [1] [µM] | IC50 [2] [µM] | IC50 [3] [µM] | IC50 [4] [µM] | IC50 [5] [µM] | IC50 [6] [µM] | also measured |
| --- | --- | --- | --- | --- | --- | --- | --- |
| CC(C)=CC[C@@H](OC(=O)CCCC[C@@H]1CCSC(c2ccc(Cl)cc2)S1)C1=CC(=O)c2c(O)ccc(O)c2C1=O (some centres undefined) | 83.6 | 17.7 | 21.4 | 7.42 | 64.7 | 6.69 | – |
| CC(C)=CC[C@@H](OC(=O)CCCC[C@@H]1CCSC(c2c(Cl)cccc2Cl)S1)C1=CC(=O)c2c(O)ccc(O)c2C1=O (some centres undefined) | 79.8 | 29.2 | 8.95 | 10.4 | 69.9 | 14.9 | – |
| CC(C)=CC[C@@H](OC(=O)CCCC[C@@H]1CCSC(c2ccc(C(F)(F)F)cc2)S1)C1=CC(=O)c2c(O)ccc(O)c2C1=O (some centres undefined) | 90.9 | 9.57 | 23.4 | 10.2 | 73.4 | 11.8 | – |
| CC(C)=CC[C@@H](OC(=O)CCCC[C@@H]1CCSC(c2cccc(Br)c2)S1)C1=CC(=O)c2c(O)ccc(O)c2C1=O (some centres undefined) | 93 | 26.8 | 13.3 | 22.2 | 102 | 21.9 | – |
| O=C(O)C(Cl)Cl [DICHLOROACETIC ACID] | > 100 | > 100 | > 100 | > 100 | > 100 | > 100 | inhibition [7]: Active; inhibition [8]: Active; inhibition [9]: Active |
| CC(C)=CC[C@@H](OC(=O)CCCC[C@@H]1CCSC(c2ccccc2Cl)S1)C1=CC(=O)c2c(O)ccc(O)c2C1=O (some centres undefined) | 95.8 | 20.6 | 16.5 | 16.8 | 78 | 11.3 | – |
| COc1cc2c(c(OC)c1OC)-c1ccc(OC)c(=O)cc1[C@@H](NC(C)=O)CC2 [COLCHICINE] | 3.01 | 3.89 | 2.54 | 4.64 | 6.38 | 4.65 | inhibition [10]: Active; inhibition [11]: Active |
| CC(C)=CC[C@@H](OC(=O)CCCC[C@@H]1CCSC(c2ccc(C)cc2)S1)C1=CC(=O)c2c(O)ccc(O)c2C1=O (some centres undefined) | 85.6 | 11.9 | 11.5 | 12.1 | 88.6 | 45.7 | – |
| COc1ccc(C2SCC[C@@H](CCCCC(=O)O[C@H](CC=C(C)C)C3=CC(=O)c4c(O)ccc(O)c4C3=O)S2)cc1OC (some centres undefined) | 99.3 | 16.7 | 21.9 | 19.3 | 116 | 4.34 | – |
| CC(C)=CC[C@@H](OC(=O)CCCC[C@@H]1CCSC(c2ccccc2C)S1)C1=CC(=O)c2c(O)ccc(O)c2C1=O (some centres undefined) | 89.8 | 17.4 | 14.9 | 10 | 102 | 24.3 | – |
| CC(C)=CC[C@@H](OC(=O)CCCC[C@@H]1CCSC(c2ccc(C(C)C)cc2)S1)C1=CC(=O)c2c(O)ccc(O)c2C1=O (some centres undefined) | 85.6 | 8.97 | 17.5 | 19.6 | 108 | 25.9 | – |
| CC(=O)O[C@H]1C(=O)[C@@]2(C)[C@H]([C@H](OC(=O)c3ccccc3)[C@]3(O)C[C@H](OC(=O)[C@H](O)[C@@H](NC(=O)c4ccccc4)c4ccccc4)C(C)=C1C3(C)C)[C@]1(OC(C)=O)CO[C@@H]1C[C@@H]2O | – | – | – | – | – | – | Activity [12]: Active; Activity [13]: Active |
| CC(C)=CC[C@@H](OC(=O)CCCC[C@@H]1CCSS1)C1=CC(=O)c2c(O)ccc(O)c2C1=O | 103 | 25.9 | 28.9 | 14.6 | 83.5 | 17.4 | – |
| CC(C)=CC[C@@H](OC(=O)CCCC[C@@H]1CCSC(c2ccc([N+](=O)[O-])cc2)S1)C1=CC(=O)c2c(O)ccc(O)c2C1=O (some centres undefined) | 96.2 | 16.2 | 26.9 | 22.2 | 95.4 | 20.4 | – |
| CC(C)=CC[C@@H](OC(=O)CCCC[C@@H]1CCSC(C2CCCCC2)S1)C1=CC(=O)c2c(O)ccc(O)c2C1=O (some centres undefined) | 108 | 19.6 | 21.9 | 27.2 | 116 | 28.4 | – |
| CC(C)=CC[C@@H](OC(=O)CCCC[C@@H]1CCSC(c2cccc(C(F)(F)F)c2)S1)C1=CC(=O)c2c(O)ccc(O)c2C1=O (some centres undefined) | 136 | 35.1 | 20.2 | 19.6 | 83.9 | 4.53 | – |
| COc1ccc(C2SCC[C@@H](CCCCC(=O)O[C@H](CC=C(C)C)C3=CC(=O)c4c(O)ccc(O)c4C3=O)S2)cc1 (some centres undefined) | 94.8 | 18 | 16 | 20.7 | 105 | 30.1 | – |
| COc1ccccc1C1SCC[C@@H](CCCCC(=O)O[C@H](CC=C(C)C)C2=CC(=O)c3c(O)ccc(O)c3C2=O)S1 (some centres undefined) | 116 | 24.2 | 9.96 | 6.03 | 79.3 | 26.7 | – |
| CC(C)=CC[C@@H](OC(=O)CCCC[C@@H]1CCSC(c2ccc(Cl)cc2Cl)S1)C1=CC(=O)c2c(O)ccc(O)c2C1=O (some centres undefined) | 121 | 28 | 9.17 | 17.5 | 90.1 | 17.8 | – |
| CC(C)=CC[C@@H](O)C1=CC(=O)c2c(O)ccc(O)c2C1=O [SHIKONIN] | 3.41 | 8.75 | 6.86 | 3.53 | 62.8 | 6.92 | Activity [14]: 28.12%; Activity [15]: 24.03%; inhibition [16]: Active; Activity [17]: 17.42%; Activity [18]: Active; Activity [19]: 62.72%; Activity [20]: 13.25%; Activity [21]: 63.83%; Activity [22]: 14.13%; Activity [23]: Toxic; Activity [24]: 57.75%; Activity [25]: 18.75% |
| CC(C)=CC[C@@H](OC(=O)CCCC[C@@H]1CCSC(c2cccc(Cl)c2Cl)S1)C1=CC(=O)c2c(O)ccc(O)c2C1=O (some centres undefined) | 119 | 25.8 | 13.6 | 10.7 | 97.8 | 5.08 | – |
